Source: PMC8032764 (Scientific Reports, 2021)
Where “and” joins values, the source holds several entries; their conditions need not be identical. Equal entries are not always repeated. Where two headings read alike, the source gives them in different places.

Columns and labels:
[1] = system: T1, Serotonin transporter; experiment: Cerep binding; set-up: species or system human; details: 10 μM; [3H]imipramine; hum. recomb. (CHO)
T1 construct: host or cells: CHO

[2] = system: T2, Cholecystokinin CCK1; experiment: Cerep binding; set-up: species or system human; details: 10 μM; [125I]CCK-8s; hum. recomb. (CHO)
T2 construct: purchased Eurofins Cerep

[3] = system: T3, Vasopressin V1A; experiment: Cerep binding; set-up: species or system human; details: 10 μM; [3H]AVP; hum. recomb. (CHO)
T3 construct: host or cells: CHO

[4] = system: Purinergic P2Y; experiment: Cerep binding; details: 10 μM; [35S]dATPαS; rat cerebral cortex
[5] = Plasma levels, object retrieval task; assay type: in vivo, Macaca fascicularis; details: cynomolgus monkey, oral; for concentration at 180 min: read-out: total plasma concentration
Experimental: Twelve cynomolgus macaques were presented with a clear acrylic box with one open side baited with a food treat, as described previously[14],[38]. The test is easy when the open side of the box is directed towards the subject and difficult when the open sides face other directions. […] Compound doses were administered in a pseudorandom order. Administration of dose and behavioral measurements were completed blind. Data were analysed using a one-way repeated measures ANOVA followed, in significant cases, by a post hoc Dunnett’s test. Plasma samples were collected from the same three subjects at each dose group at 3 h post administration. […] The calibration range was from 1.0 to 5000 ng/mL. After protein precipitation with ethanol, the sample solution was injected onto a Gemini C18 trapping column (2 × 10 mm; Phenomenex, Torrance, CA, USA) and polar endogenous compounds and salts were rinsed off. […] A drug analogue was used as an internal standard.

[6] = system: T4, Cannabinoid CB1; experiment: Cerep binding; set-up: species or system human; details: 10 μM; [3H]CP 55940; hum. recomb. (CHO)
T4 construct: host or cells: CHO

[7] = system: T5, Prostanoid IP (PGI2); experiment: Cerep binding; set-up: species or system human; details: 10 μM; [3H]iloprost; hum. recomb. (HEK-293)
T5 construct: host or cells: HEK-293

[8] = Plasma concentration in PET study; assay type: in vivo; details: human
Experimental: The study was single-blind, i.e., subjects were blinded to dose. Blood sampling was performed at four different timepoints starting 30 min before the post dose PET scan.

[9] = system: male Sprague-Dawley rats; experiment: Prepulse inhibition; assay type: in vivo, rat; details: 1, 3 and 10 mg/kg p.o., 30 min prior to testing
Experimental: (§1) intensities (72, 76, 80, 84 dB) at total plasma concentrations of 56 ± 20, 169 ± 20, and […]
(§2) Compound administered at 1, 3 and 10 mg/kg p.o. to male Sprague-Dawley rats 30 min prior to testing. Bars indicate mean percent prepulse inhibition (% PPI) ± SEM; 10 animals per dose group. Background noise: 68 dB. Startle pulse: 12 0 dB. For full methods refer to:
(§3) Nordquist et al. (2008). Effects of aripiprazole/OPC-14597 on motor activity, pharmacological models of psychosis, and brain activity in rats. Neuropharmacology , 54,405-416.
(§4) Animals were euthanized at the end of testing and plasma samples were collected approximately 60 min post administration; n = 4 rats per group.
(§5) (1 picture or pasted object on this page, not shown here)

[10] = Pharmacokinetics, single intravenous dosing; assay type: in vivo; details: C57/Bl6, mouse, plasma, 2.0 mg/kg i.v., 2 male
[11] = system: T6, Angiotensin AT1; experiment: Cerep binding; set-up: species or system human; details: 10 μM; [125I][Sar1,Ile8]-AT-II; hum. recomb. (HEK-293)
T6 construct: purchased Eurofins Cerep

[12] = Plasma levels, prepulse inhibition; assay type: in vivo, rat; details: approximately 60 min, mean ± SD
Experimental: as §1, §2, §3, §4, §5

[13] = system: T7, Opioid κ; experiment: Cerep binding; set-up: species or system human; details: 10 μM; [3H]U 69593; hum. recomb. (CHO)
T7 construct: host or cells: CHO

[14] = system: T8, Vasoactive intestinal peptide PAC1 (PACAP); experiment: Cerep binding; set-up: species or system human; details: 10 μM; [125I]PACAP1-27; hum. recomb. (CHO)
T8 construct: host or cells: CHO

[15] = system: T9, Neurotensin NTS1 (NT1); experiment: Cerep binding; set-up: species or system human; details: 10 μM; [125I]Tyr3-neurotensin; hum. recomb. (CHO)
T9 construct: host or cells: CHO

[16] = target: human GABAA α5β3γ2 (Homo sapiens, UniProt P18507+P31644); experiment: biochemical; details: 1 nM [3H]-flumazenil
Experimental: HEK293-EBNA cells adapted to grow in suspension were transiently transfected with the plasmids containing the desired GABAA receptor subunit cDNAs at α, β, γ, 1:1:2 ratio using XtremeGENE Q2 (Cat. No. 03045595001, Roche Applied Science, RAS, Rotkreuz, Switzerland) as previously described. GABAA α1β2γ2, α2β3γ2, α3β3γ2, α4β3γ2, α5β3γ2 and α6β3γ2 receptor subtypes were expressed in this system. 48 h post transfection, the cells were harvested and washed three times with cold PBS and frozen at − 80 °C.
Non-specific binding was determined in the presence of 10 μM diazepam.

[17] = Plasma levels, PTZ test; assay type: in vivo, rat
Experimental: Following tonic convulsions, rats were immediately euthanized by decapitation. All other rats were euthanized by decapitation at the end of the 30 min observation period. Plasma samples were collected and frozen at − 80 °C for analysis of drug content.
The calibration range was from 1.0 to 5000 ng/mL. After protein precipitation with ethanol, the sample solution was injected onto a Gemini C18 trapping column (2 × 10 mm; Phenomenex, Torrance, CA, USA) and polar endogenous compounds and salts were rinsed off. Analytical separation was performed on an Atlantis T3 column (2.1 × 50 mm) (Waters, Milford, MA, USA), using methanol/water containing 0.1% formic acid as mobile phase. A drug analogue was used as an internal standard.

human GABAA α5β3γ2, sequence (P31644 32-462): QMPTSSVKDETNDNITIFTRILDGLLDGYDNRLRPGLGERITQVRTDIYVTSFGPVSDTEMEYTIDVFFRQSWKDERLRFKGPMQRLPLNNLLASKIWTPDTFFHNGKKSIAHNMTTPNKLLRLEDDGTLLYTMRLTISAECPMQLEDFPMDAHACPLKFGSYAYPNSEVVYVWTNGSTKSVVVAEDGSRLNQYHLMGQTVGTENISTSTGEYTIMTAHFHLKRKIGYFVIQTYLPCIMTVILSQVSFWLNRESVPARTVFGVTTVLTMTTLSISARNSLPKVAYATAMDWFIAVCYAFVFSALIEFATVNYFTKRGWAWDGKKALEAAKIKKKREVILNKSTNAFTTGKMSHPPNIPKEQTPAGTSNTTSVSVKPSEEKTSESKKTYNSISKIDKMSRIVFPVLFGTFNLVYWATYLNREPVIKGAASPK
human GABAA α5β3γ2, sequence (P28472 26-473 partner): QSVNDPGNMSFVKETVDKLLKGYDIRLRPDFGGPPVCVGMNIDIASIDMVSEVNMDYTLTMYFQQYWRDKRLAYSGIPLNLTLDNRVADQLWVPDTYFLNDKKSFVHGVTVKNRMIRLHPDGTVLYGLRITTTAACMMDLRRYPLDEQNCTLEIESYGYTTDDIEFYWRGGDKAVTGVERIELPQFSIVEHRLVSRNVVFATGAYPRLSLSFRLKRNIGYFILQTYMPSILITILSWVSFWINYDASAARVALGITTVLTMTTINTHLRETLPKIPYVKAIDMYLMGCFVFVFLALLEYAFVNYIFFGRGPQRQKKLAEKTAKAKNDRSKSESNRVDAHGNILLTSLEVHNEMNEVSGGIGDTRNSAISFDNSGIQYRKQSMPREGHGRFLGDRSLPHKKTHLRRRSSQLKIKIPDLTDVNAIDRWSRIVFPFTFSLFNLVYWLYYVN
human GABAA α5β3γ2, sequence (P18507 40-475): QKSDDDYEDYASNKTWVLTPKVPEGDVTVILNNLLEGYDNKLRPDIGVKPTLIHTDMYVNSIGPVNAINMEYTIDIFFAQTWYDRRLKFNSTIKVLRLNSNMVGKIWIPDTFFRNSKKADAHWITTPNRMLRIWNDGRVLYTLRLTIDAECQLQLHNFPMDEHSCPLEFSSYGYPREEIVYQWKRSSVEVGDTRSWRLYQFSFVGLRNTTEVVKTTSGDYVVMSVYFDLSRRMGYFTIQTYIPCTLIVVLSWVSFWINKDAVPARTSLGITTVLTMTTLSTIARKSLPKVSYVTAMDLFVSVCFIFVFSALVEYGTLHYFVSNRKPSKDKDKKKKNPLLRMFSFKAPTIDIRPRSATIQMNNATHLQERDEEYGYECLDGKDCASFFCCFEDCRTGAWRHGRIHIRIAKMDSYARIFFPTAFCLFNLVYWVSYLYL

Cc1onc(-c2ccc(F)cc2)c1COc1ccc(C(=O)N2CCS(=O)(=O)CC2)cn1 [basmisanil]
% Inhibition [1]: 5% | % Inhibition [2]: 10% | % Inhibition [3]: 13% | % Inhibition [4]: 9% | concentration at 180 min ([5]; 1 mg/kg p.o.): 257 ng/mL | concentration at 180 min ([5]; 3 mg/kg p.o.): 1020 ng/mL | concentration at 3 h ([5]; 3 mg/kg p.o., read-out: free plasma concentration): 156 nM | concentration at 180 min ([5]; 10 mg/kg p.o.): 2260 ng/mL | concentration at 180 min ([5]; 30 mg/kg p.o.): 2850 ng/mL | % Inhibition [6]: 16% | % Inhibition [7]: -1% | concentration at 3.75 h ([8]; subject 11010, 40 mg, 3.75 h prior to scan): 592 ng/mL | concentration at 3.12 h ([8]; subject 11020, 160 mg, 3.12 h prior to scan): 2280 ng/mL | concentration at 3 h ([8]; subject 11021, 160 mg, 3.00 h prior to scan): 2550 ng/mL | concentration at 2.63 h ([8]; subject 13010, 40 mg, 2.63 h prior to scan): 422 ng/mL | concentration at 4.75 h ([8]; subject 13030, 1000 mg, 4.75 h prior to scan): 2200 ng/mL | concentration at 4.77 h ([8]; subject 13031, 1000 mg, 4.77 h prior to scan): 3350 ng/mL | concentration at 1.48 h ([8]; subject 13040, 20 mg, 1.48 h prior to scan): 111 ng/mL | concentration at 2.2 h ([8]; subject 13041, 20 mg, 2.20 h prior to scan): 398 ng/mL | concentration at 2.43 h ([8]; subject 13050, 80 mg, 2.43 h prior to scan): 1000 ng/mL | prepulse inhibition induced by prepulse intensities 72, 76, 80, 84 dB [9]: does not impair prepulse inhibition | half-life [10]: 30 min | clearance ([10]; read-out: Total CL): 37 mL/min/kg | Vd ([10]; read-out: Vss): 1.3 L/kg | % Inhibition [11]: 2% | total plasma concentration ([12]; 1 mg/kg p.o.): 56 ± 20 ng/mL | total plasma concentration ([12]; 3 mg/kg p.o.): 169 ± 20 ng/mL | total plasma concentration ([12]; 10 mg/kg p.o.): 729 ± 255 ng/mL | % Inhibition [13]: 13% | % Inhibition [14]: -16% | % Inhibition [15]: -6% | Ki [16]: 5 nM and 5.1 nM | free plasma concentration ([17]; female rats, 30 mg/kg): 2452 nM | free plasma concentration ([17]; female rats, 100 mg/kg): 5079 nM | free plasma concentration ([17]; male rats, 100 mg/kg): 1622 nM
